Biological target: not listed separately
Test: Inhibition of yeast alpha-glucosidase using p-nitrophenyl-alpha-d-glucopyranoside as substrate preincubated for 10 mins followed by substrate addition measured after 30 mins
Design: species or system Saccharomyces cerevisiae

Row | Structure (SMILES) | IC50 [µM]
1 | O=c1oc2ccc(Br)cc2cc1-c1nn(-c2ccccc2)cc1-c1nc(-c2ccccc2)c(-c2ccccc2)n1-c1ccc(Br)cc1 | 2.5 to 46
2 | Cc1cc(C)cc(-n2c(-c3cn(-c4ccccc4)nc3-c3cc4ccccc4oc3=O)nc(-c3ccccc3)c2-c2ccccc2)c1 | 2.5 to 46
3 | O=c1oc2ccccc2cc1-c1nn(-c2ccccc2)cc1-c1nc(-c2ccccc2)c(-c2ccccc2)[nH]1 | 2.7
4 | O=[N+]([O-])c1cccc(-c2nn(-c3ccccc3)cc2-c2nc(-c3ccccc3)c(-c3ccccc3)[nH]2)c1 | 2.7 to 23
5 | O=c1oc2ccc(Br)cc2cc1-c1nn(-c2ccccc2)cc1-c1nc(-c2ccccc2)c(-c2ccccc2)[nH]1 | 2.7 to 23
6 | c1ccc(-c2ccc(-c3nn(-c4ccccc4)cc3-c3nc(-c4ccccc4)c(-c4ccccc4)[nH]3)cc2)cc1 | 2.7 to 23
7 | COc1ccc(-n2c(-c3cn(-c4ccccc4)nc3-c3cc4ccccc4oc3=O)nc(-c3ccccc3)c2-c2ccccc2)cc1 | 2.5 to 46
8 | Cc1cc(C)cc(-n2c(-c3cn(-c4ccccc4)nc3-c3cc4cc(Br)ccc4oc3=O)nc(-c3ccccc3)c2-c2ccccc2)c1 | 2.5 to 46
9 | O=c1oc2ccccc2cc1-c1nn(-c2ccccc2)cc1-c1nc(-c2ccccc2)c(-c2ccccc2)n1-c1ccc(Cl)cc1 | 2.5 to 46
10 | COc1ccc(-n2c(-c3cn(-c4ccccc4)nc3-c3cc4cc(Br)ccc4oc3=O)nc(-c3ccccc3)c2-c2ccccc2)cc1 | 2.5 to 46
11 | c1ccc(-c2nn(-c3ccccc3)cc2-c2nc(-c3ccccc3)c(-c3ccccc3)[nH]2)cc1 | 2.7 to 23

The next lines start with the values.

Row | IC50 [µM] | Structure (SMILES)
12 | 35 to 297 | Cc1ccc(NC(=S)NNC(=O)c2ccc(-c3nc4cc(C)c(C)cc4[nH]3)cc2)cc1
13 | 35 | Cc1cc2nc(-c3ccc(C(=O)NNC(=S)Nc4ccc([N+](=O)[O-])cc4)cc3)[nH]c2cc1C
14 | 8.4 to 179 | Cc1cc2nc(-c3ccc(C(=O)N/N=C/c4ccncc4)cc3)[nH]c2cc1C
15 | 35 to 297 | Cc1cc2nc(-c3ccc(C(=O)NNC(=S)Nc4cccc([N+](=O)[O-])c4)cc3)[nH]c2cc1C
16 | 2.7 to 23 | Cc1nn(-c2ccc([N+](=O)[O-])cc2)c(C)c1-c1nc(-c2ccccc2)c(-c2ccccc2)[nH]1
17 | 8.4 to 179 | Cc1cc2nc(-c3ccc(C(=O)N/N=C/c4ccco4)cc3)[nH]c2cc1C
18 | 8.4 to 179 | Cc1cc2nc(-c3ccc(C(=O)N/N=C/c4cccc(O)c4)cc3)[nH]c2cc1C
19 | 35 to 297 | Cc1cc2nc(-c3ccc(C(=O)NNC(=S)Nc4ccc(C(F)(F)F)cc4)cc3)[nH]c2cc1C
20 | 8.4 to 179 | Cc1ccc(/C=N/NC(=O)c2ccc(-c3nc4cc(C)c(C)cc4[nH]3)cc2)cc1
21 | 35 to 297 | Cc1cc2nc(-c3ccc(C(=O)NNC(=S)Nc4cccc(Br)c4)cc3)[nH]c2cc1C
22 | 8.4 to 9.9 | Cc1cc2nc(-c3ccc(C(=O)N/N=C/c4cccc(O)c4O)cc3)[nH]c2cc1C
23 | 35 to 297 | Cc1cc2nc(-c3ccc(C(=O)NNC(=S)Nc4ccc(Br)cc4)cc3)[nH]c2cc1C
24 | 35 to 297 | Cc1cc2nc(-c3ccc(C(=O)NNC(=S)Nc4ccccc4Cl)cc3)[nH]c2cc1C
25 | 2.7 to 23 | Brc1ccc(-c2nn(-c3ccccc3)cc2-c2nc(-c3ccccc3)c(-c3ccccc3)[nH]2)cc1
26 | 8.4 to 9.9 | COc1ccc(/C=N/NC(=O)c2ccc(-c3nc4cc(C)c(C)cc4[nH]3)cc2)c(O)c1
27 | 8.4 to 9.9 | Cc1cc2nc(-c3ccc(C(=O)N/N=C/c4ccc(O)cc4O)cc3)[nH]c2cc1C
28 | 8.4 to 179 | COc1ccc(/C=N/NC(=O)c2ccc(-c3nc4cc(C)c(C)cc4[nH]3)cc2)cc1OC
29 | 8.4 to 179 | COc1ccc(/C=N/NC(=O)c2ccc(-c3nc4cc(C)c(C)cc4[nH]3)cc2)cc1O
30 | 8.4 to 179 | Cc1cc2nc(-c3ccc(C(=O)N/N=C/c4cccc(F)c4)cc3)[nH]c2cc1C
31 | 2.7 to 23 | O=[N+]([O-])c1ccc(-c2nn(-c3ccccc3)cc2-c2nc(-c3ccccc3)c(-c3ccccc3)[nH]2)cc1
32 | 8.4 to 179 | Cc1cc2nc(-c3ccc(C(=O)N/N=C/c4ccccc4C)cc3)[nH]c2cc1C
33 | 8.4 to 179 | COc1cccc(/C=N/NC(=O)c2ccc(-c3nc4cc(C)c(C)cc4[nH]3)cc2)c1
34 | 8.4 to 179 | Cc1cc2nc(-c3ccc(C(=O)N/N=C/c4cccc(Cl)c4)cc3)[nH]c2cc1C
35 | 2.7 to 23 | COc1ccc(-c2nn(-c3ccccc3)cc2-c2nc(-c3ccccc3)c(-c3ccccc3)[nH]2)cc1
36 | 35 to 297 | Cc1cc2nc(-c3ccc(C(=O)NNC(=S)Nc4ccccc4F)cc3)[nH]c2cc1C
37 | 35 to 297 | COc1cccc(NC(=S)NNC(=O)c2ccc(-c3nc4cc(C)c(C)cc4[nH]3)cc2)c1
38 | 2.7 to 23 | Clc1ccc(-c2nn(-c3ccccc3)cc2-c2nc(-c3ccccc3)c(-c3ccccc3)[nH]2)cc1

Biological target: T1, Alpha glucosidase (Homo sapiens, UniProt O43451+P10253+P14410+Q2M2H8)
Test: Inhibition of alpha-glucosidase (unknown origin) using p-nitrophenyl-alpha-d-glucopyranoside as substrate preincubated for 15 mins followed by substrate addition measured after 30 mins by spectrophotometric analysis
Type: protein assay

Row | Structure (SMILES) | IC50 [µM]
39 | Clc1ccc2sc(SCc3cn(Cc4ccccc4)nn3)nc2c1 | 20 to 61
40 | Fc1ccccc1Cn1cc(CSc2nc3cc(Cl)ccc3s2)nn1 | 20 to 61
41 | CC(C)(C)c1ccc(Cn2cc(CSc3nc4ccccc4s3)nn2)cc1 | 20 to 61
42 | CC(C)(C)c1ccc(Cn2cc(CSc3nc4cc(Cl)ccc4s3)nn2)cc1 | 20
43 | Fc1ccc(CSc2nc(-c3ccc(Br)cc3)cc(-c3ccc(Br)cc3)n2)cc1 | 19 to 38
44 | Clc1ccc(Cn2cc(CSc3nc4cc(Cl)ccc4s3)nn2)cc1 | 20 to 61
45 | Brc1ccc(Cn2cc(CSc3nc4ccccc4s3)nn2)cc1 | 20 to 61
46 | Brc1ccccc1Cn1cc(CSc2nc3ccccc3s2)nn1 | 20 to 61
47 | Clc1ccc2sc(SCc3cn(Cc4ccc(Br)cc4)nn3)nc2c1 | 20 to 61
48 | Fc1cccc(CSc2nc(-c3ccc(Br)cc3)cc(-c3ccc(Br)cc3)n2)c1 | 19 to 38
49 | Clc1ccc(Cn2cc(CSc3nc4ccccc4s3)nn2)cc1 | 20 to 61
50 | Fc1cccc(Cn2cc(CSc3nc4cc(Cl)ccc4s3)nn2)c1 | 20 to 61
51 | Fc1ccc(Cn2cc(CSc3nc4cc(Cl)ccc4s3)nn2)cc1 | 20 to 61
52 | Clc1cc(Cl)cc(Cn2cc(CSc3nc4ccccc4s3)nn2)c1 | 20 to 61
53 | Clc1ccc2sc(SCc3cn(Cc4ccccc4Cl)nn3)nc2c1 | 20 to 61
54 | Clc1ccc(CSc2nc(-c3ccc(Br)cc3)cc(-c3ccc(Br)cc3)n2)cc1 | 19 to 38
55 | Clc1cc(Cl)cc(Cn2cc(CSc3nc4cc(Cl)ccc4s3)nn2)c1 | 20 to 61

Further lines, results first:

Row | IC50 [µM] | Structure (SMILES)
56 | 19 to 38 | Cc1ccc(-c2cc(-c3cccc(Br)c3)nc(SCc3ccccc3Cl)n2)cc1
57 | 19 to 38 | Cc1ccc(-c2cc(-c3ccc(Br)cc3)nc(SCc3ccccc3Br)n2)cc1
58 | 19 to 38 | Cc1ccc(-c2cc(-c3cccc(Br)c3)nc(SCc3cccc(F)c3)n2)cc1
59 | 19 to 38 | Cc1ccc(-c2cc(-c3ccc(Br)cc3)nc(SCc3ccc(Cl)cc3)n2)cc1
60 | 19 to 38 | Fc1ccccc1CSc1nc(-c2ccc(Br)cc2)cc(-c2ccc(Br)cc2)n1
61 | 19 to 38 | Clc1ccccc1CSc1nc(-c2ccc(Br)cc2)cc(-c2ccc(Br)cc2)n1
62 | 19 to 38 | Cc1ccc(-c2cc(-c3cccc(Br)c3)nc(SCc3ccc(F)cc3)n2)cc1
63 | 2.5 | O=C(COc1ccc2ccc(=O)oc2c1)N/N=C1\C(=O)N(Cc2ccccc2F)c2ccc(Cl)cc21

Biological target: T1, Alpha glucosidase
Test: Inhibition of alpha-glucosidase (unknown origin) using p-nitrophenyl-alpha-d-glucopyranoside as substrate preincubated for 5 mins followed by substrate addition measured after 5 mins
Type: protein assay

Row | Structure (SMILES) | IC50 [µM]
64 | Nc1nnc(-c2cccc([N+](=O)[O-])c2)s1 | 2.3 to 38
65 | COc1ccc(Br)cc1-c1nnc(N)s1 | 2.3 to 38
66 | Nc1nnc(-c2ccc(Cl)cc2)s1 | 2.3 to 38
67 | CN(C)c1ccc(-c2nnc(N)s2)cc1 | 2.3 to 38
68 | Nc1nnc(-c2c3ccccc3cc3ccccc23)s1 | 2.3 to 38
69 | Nc1nnc(-c2ccc([N+](=O)[O-])cc2)s1 | 2.3 to 38
70 | Nc1nnc(-c2ccccc2[N+](=O)[O-])s1 | 2.3 to 38
71 | COc1ccc(Br)cc1/C=N/c1nnc(-c2cccc([N+](=O)[O-])c2)s1 | 2.3 to 25
72 | O=[N+]([O-])c1ccc(/C=N/c2nnc(-c3ccc(Cl)cc3)s2)cc1 | 2.3 to 25
73 | Nc1nnc(-c2ccc(O)cc2)s1 | 2.3
74 | O=C(N/N=C/c1ccccn1)c1cc2ccccc2oc1=O | 1.1 to 36
75 | O=[N+]([O-])c1cccc(-c2nnc(/N=C/c3ccc(Cl)cc3Cl)s2)c1 | 2.3 to 25
76 | Nc1nnc(-c2ccc(Cl)cc2Cl)s1 | 2.3 to 38
77 | O=C(N/N=C/c1ccccc1[N+](=O)[O-])c1cc2ccccc2oc1=O | 1.1 to 36
78 | Nc1nnc(-c2cc3ccccc3cc2O)s1 | 2.3 to 38
79 | COc1cccc(-c2nnc(N)s2)c1OC | 2.3 to 38

Continued, values first:

Row | IC50 [µM] | Structure (SMILES)
80 | 1.1 to 36 | O=C(N/N=C/c1cccc(F)c1)c1cc2ccccc2oc1=O
81 | 2.3 to 25 | COc1cc(-c2nnc(/N=C/c3ccc(O)cc3)s2)ccc1OCc1ccccc1
82 | 1.1 to 36 | O=C(N/N=C/c1ccc([N+](=O)[O-])cc1)c1cc2ccccc2oc1=O
83 | 1.1 to 36 | O=C(N/N=C/c1ccc(F)cc1)c1cc2ccccc2oc1=O
84 | 2.3 to 25 | Clc1ccc(-c2nnc(/N=C/c3ccc(OCc4ccccc4)cc3)s2)cc1
85 | 2.3 to 25 | Clc1ccc(-c2nnc(/N=C/c3ccc(Cl)cc3Cl)s2)cc1
86 | 2.3 to 38 | Nc1nnc(-c2ccc(Cl)c(OCc3ccccc3)c2)s1
87 | 1.1 to 36 | COc1ccc(/C=N/NC(=O)c2cc3ccccc3oc2=O)c(O)c1
88 | 1.1 to 36 | Cc1cccc(/C=N/NC(=O)c2cc3ccccc3oc2=O)c1
89 | 2.3 to 25 | O=[N+]([O-])c1ccccc1/C=N/c1nnc(-c2ccc(Cl)cc2)s1
90 | 1.1 to 36 | Cc1ccccc1/C=N/NC(=O)c1cc2ccccc2oc1=O
91 | 1.1 to 36 | O=C(N/N=C/c1ccccc1O)c1cc2ccccc2oc1=O
92 | 1.1 to 36 | O=C(N/N=C/c1ccccc1)c1cc2ccccc2oc1=O
93 | 1.1 to 36 | COc1ccc(O)c(/C=N/NC(=O)c2cc3ccccc3oc2=O)c1
94 | 1.1 to 36 | Cc1ccc(/C=N/NC(=O)c2cc3ccccc3oc2=O)cc1
95 | 2.3 to 25 | COc1ccc(Br)cc1/C=N/c1nnc(-c2ccc(Cl)cc2)s1
96 | 1.1 to 36 | O=C(N/N=C/c1ccc(O)cc1O)c1cc2ccccc2oc1=O
97 | 1.1 to 36 | O=C(N/N=C/c1ccccc1F)c1cc2ccccc2oc1=O
98 | 1.1 to 36 | COc1ccc(/C=N/NC(=O)c2cc3ccccc3oc2=O)cc1
99 | 2.3 | Oc1ccc(/C=N/c2nnc(-c3ccc(Cl)cc3)s2)cc1
100 | 2.3 to 38 | Nc1nnc(-c2ccc(OCc3ccccc3)cc2)s1
101 | 1.1 | O=C(N/N=C/c1cccc(O)c1O)c1cc2ccccc2oc1=O
102 | 1.1 to 36 | O=C(N/N=C/c1ccncc1)c1cc2ccccc2oc1=O
